Assay [1] has as its system central nervous system. The settings on record: after oral administration; cited from earlier work.
Assay [2] deals with MeCP2-/y mice. In words: Heart rate measurements. The assay is classed as in vivo, mouse. To be noted: 8 weeks old, treated from P15. The method, then: Real time cardiac pulse rate is measured using a tail clip sensor (Mouse OX Oximeter—Oakmont, Pa.). Mice are not anesthetized but physically restrained in a fitted open plastic tube. Prior to the recording session the tube is placed overnight in the cages housing the experimental animals to allow habituation. Body temperature is maintained at ˜82-84° F. throughout the recording time. We record 3 trials of 15 minutes for each mouse, mice are 8 weeks old and treated with vehicle or G-2-MePE from P15.
To examine heart rate abnormalities in MeCP2−/y mice and the effect of G-2-MePE treatment, we monitor real time cardiac pulse rate in non-anesthetized wild type and MeCP2−/y animals treated with vehicle or G-2-MePE.

Assay [3] has as its system MeCP2 deficient mice. In words: Survival of MeCP2 deficient mice after oral administration. The assay is classed as in vivo, mouse. The settings on record: 20 or 80 mg/kg daily. On the procedure: Therefore, we administer G-2-MePE orally to MeCP2 deficient mice as described in US 2009/0074865. Briefly, an aqueous solution, a water-in-oil emulsion (micro-emulsion, coarse emulsion or liquid crystal), or a gel composition containing a pharmaceutically effective amount of G-2-MePE (20 or 80 mg/kg per animal) is administered daily. In control MeCP2 deficient animals, we administer saline only, and wild-type animals are used to obtain baseline data similar to the design of studies described in Example 8 above.

Assay [4] concerns heterozygous Shank3-deficient mice. Put plainly: Shank3-deficient mouse model, behavioral analyses. In kind it is in vivo. To be noted: 15 or 60 mg/kg oral b.i.d. for 14 days. The source says: Heterozygous mice generated by crossing wild-type mice with heterozygotes are used in this example to best model the haploinsufficiency of Shank3, responsible for 22q13 deletion syndrome.
1 to 3 month old wild type and heterozygous Shank3-deficient mice are divided into 4 treatment groups: placebo treated wild-type, placebo treated Shank3-deficient group and two Shank3-deficient G-2-MePE treated groups. The animals are given placebo (water) or G-2-MePE formulated in water administered orally, b.i.d for 14 days. G-2-MePE is administered at two doses: 15 or 60 mg/kg.
Behavioral assessments are made at several, time points, and include analysis of social interactions and ultrasonic social communication, in line with the methodology described by Bozdagi et al. Briefly, male-female social interactions in each treatment group are evaluated. […] Videos from the male subjects are subsequently scored by an investigator uninformed of the subject's genotype and treatment group on measures of nose-to-nose sniffing, nose-to-anogenital sniffing and sniffing of other body regions, using Noldus Observer software (Noldus Information Technology, Leesburg, Va., USA). Ultrasonic vocalizations are identified manually by two highly trained investigators blinded to genotype/treatment group information, and summary statistics are calculated using the Avisoft package. […]

Non-standard residues stand in square brackets, D forms with d. Residues, ends and D or L forms follow the SMILES beside them. αMeP = C[C@@]1(C(=O)O)CCCN1

On to `C[C@@]1(C(=O)N[C@@H](CCC(=O)O)C(=O)O)CCCN1C(=O)CN` [Example G-2-MePE, Glycyl-L-2-methylprolyl-L-glutamic acid] (H-Gly-[αMeP]-Glu-OH), for which the “activity in the central nervous system” value in assay [1] was “active”. Further, in assay [2], the “occurrence of irregular heart rate with a lower average rate” value is recorded as “significantly reduced”. In addition, in assay [3], the survival entry is “increased substantially”. Moreover, the “cumulative duration of total social sniffing” value in assay [4] (vs placebo treated Shank3-deficient group) is “significant increase”. Moreover, the “number of ultrasonic vocalizations” value in assay [4] (vs placebo treated mutant group) is “increased number”.

These data come from patent US9212204B2, “Treatment of rett syndrome using glycyl-L-2-methylprolyl-L-glutamic acid” (priority 2011, dated 2015).
